Entries after “also recorded” stand apart in the source; their conditions may differ. Values belong to the compound of their own block, whether it stands above or below them.
Experiments:
chymotrypsin [1] = test system: T1, chymotrypsin; assay: Protease assay with chymotrypsin (HPLC); assay type: in vitro ADME; conditions: chymotrypsin (50 μg/mL) in TBS, 50 μg/mL chymotrypsin, TBS pH 8.0, room temperature
T1 construct: purchased Promega V1062
Description: (§1) An HPLC method from the literature was used to assess protease action on selected compounds.^29,31 Two nmol of solid peptide was dissolved in 40 μL of TBS pH 8.0 (resulting concentration of peptide=40 μM) before protease was added. Chymotrypsin was purchased from Promega (Fitchburg, Wis.; catalog #V1062), and neprilysin was purchased from Reprokine. Ltd. (Valley Cottage, N.Y.; catalog #RKP08473); stock solutions of 250 μg/mL chymotrypsin and 200 μg/mL neprilysin in water were prepared. A 10 μL aliquot of protease stock solution was added to 40 μL of 40 μM peptide solution to begin the reaction. Periodically, a 10 μL aliquot of the solution was removed, and protease action was halted by adding this aliquot to 100 μL of 1% aqueous TFA solution. A portion (100 μL) of the quenched solution was injected onto an HPLC column using the conditions described under “Peptide Synthesis”, and peaks were analyzed using MALDI-TOF MS. The time course of peptide degradation was experimentally determined by integrating the area of each peak in a series of HPLC traces. The area percent of parent peptide (relative to the initial trace) was calculated for each trace and plotted in GraphPad Prism as an exponential decay to determine half-life values.
(§2) ID. […] Major backbone cut sites are indicated with double front slashes. […] Digestion occurs at three major cleavage sites. […] ID. NO: 7 with 50 μg/mL chymotrypsin in TBS pH 8.0 at room temperature. […] ID. NO: 9 with 50 μg/mL chymotrypsin in TBS pH 8.0 at room temperature. This peptide has seven substitutions, α→Aib.

chymotrypsin [2] = target: T2, chymotrypsin (Bos taurus, UniProt P00766); assay: Protease assay with chymotrypsin (HPLC); assay type: in vitro ADME; conditions: 50 μg/mL chymotrypsin
T2 construct: purchased Promega V1062
Description: as §1, §2

neprilysin = target: T3, neprilysin (Homo sapiens, UniProt P08473); assay: Protease assay with neprilysin (HPLC); assay type: in vitro ADME; conditions: 40 μg/mL neprilysin
T3 construct: purchased Reprokine; Ltd. RKP08473

human GLP-1 receptor = human GLP-1 receptor (Homo sapiens, UniProt P43220); assay: GLP-1R activation monitored by cAMP production in HEK293 cells
DPP-4 [3] = target: T4, DPP-4 (Homo sapiens, UniProt P27487); assay: Protease assay with DPP-4 (HPLC); assay type: in vitro ADME; conditions: TBS pH 8.0, 37° C.
T4 construct: purchased EMD Biosciences 317640

DPP-4 [4] = assay: DPP-4 (EMD Biosciences; catalog #317640) in TBS buffer, pH 8.0; conditions: 37° C., up to seven (7) days
C57BL/6J mice = assay: Glucose tolerance test (GTT) in mice; assay type: in vivo, mouse
Description: ID. NO: 7 was administered to mice by interperitoneal (i.p.) injection at a 1 mg/kg dose, or lower for SEQ. ID. NO: 7, using an injection volume of 10 mL/kg body mass. Each peptide was first dissolved in prefiltered DMSO at 10 mg/mL concentration, then diluted >20-fold with TBS buffer, pH 7.4 (final DMSO conc.=<5%). Glucose was administered by i.p. injection with a sterile-filtered 30% D-glucose-saline solution at a 1.5 g/kg dose using a 5 mL/kg injection volume.
Thirteen-week-old male C57BL/6J mice (The Jackson Laboratory) (n=4) were fasted overnight on wood chip bedding for 15 hours prior to the experiment. Blood glucose levels were monitored from a tail tip bleed using an ACCU-CHEK®-brand blood glucose meter (Roche Diagnostics, Indianapolis, Ind.). Fasting glucose levels were measured at 75 minutes prior to the glucose injection (t=−75 min), and the compound injection was performed 60 minutes prior to the glucose injection (t=−60 min). Glucose levels were measured immediately prior to the glucose injection (t=0 min) to assess any changes in the baseline glucose caused by peptide administration. Blood glucose levels were monitored at 30, 60, 90, and 120 minutes after injection of glucose.
Five hours after peptide injection, the mice received a second injection of 1.5 g/kg glucose. Blood glucose was monitored at 30 min after this second glucose injection. Mice were sacrificed by CO2 inhalation at the conclusion of the GTT.

[5] = test system: dipeptidyl peptidase-4 (DPP-4); conditions: cited from earlier work
neprilysin (NEP 24.11) = conditions: cited from earlier work

T4 sequence (P27487 whole entry): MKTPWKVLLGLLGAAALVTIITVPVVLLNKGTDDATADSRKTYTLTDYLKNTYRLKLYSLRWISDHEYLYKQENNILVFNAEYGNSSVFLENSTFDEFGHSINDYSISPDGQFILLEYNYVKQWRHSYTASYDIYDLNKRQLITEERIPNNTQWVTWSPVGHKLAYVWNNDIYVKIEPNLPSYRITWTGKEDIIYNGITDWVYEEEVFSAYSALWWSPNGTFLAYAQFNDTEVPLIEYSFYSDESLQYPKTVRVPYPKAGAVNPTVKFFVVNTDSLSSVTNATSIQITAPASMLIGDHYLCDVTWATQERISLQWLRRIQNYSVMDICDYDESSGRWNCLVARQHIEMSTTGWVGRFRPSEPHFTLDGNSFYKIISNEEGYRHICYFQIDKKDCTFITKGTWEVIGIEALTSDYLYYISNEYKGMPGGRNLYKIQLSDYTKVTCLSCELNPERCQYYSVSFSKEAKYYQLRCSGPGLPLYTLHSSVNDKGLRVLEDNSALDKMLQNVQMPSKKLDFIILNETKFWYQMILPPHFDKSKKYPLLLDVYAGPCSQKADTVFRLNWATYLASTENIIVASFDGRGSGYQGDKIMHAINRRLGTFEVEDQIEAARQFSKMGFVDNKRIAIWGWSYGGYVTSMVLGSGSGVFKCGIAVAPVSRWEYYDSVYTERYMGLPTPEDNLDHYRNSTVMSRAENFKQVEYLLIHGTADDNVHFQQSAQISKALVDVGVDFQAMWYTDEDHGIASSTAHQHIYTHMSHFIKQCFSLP
T3 sequence (P08473 whole entry): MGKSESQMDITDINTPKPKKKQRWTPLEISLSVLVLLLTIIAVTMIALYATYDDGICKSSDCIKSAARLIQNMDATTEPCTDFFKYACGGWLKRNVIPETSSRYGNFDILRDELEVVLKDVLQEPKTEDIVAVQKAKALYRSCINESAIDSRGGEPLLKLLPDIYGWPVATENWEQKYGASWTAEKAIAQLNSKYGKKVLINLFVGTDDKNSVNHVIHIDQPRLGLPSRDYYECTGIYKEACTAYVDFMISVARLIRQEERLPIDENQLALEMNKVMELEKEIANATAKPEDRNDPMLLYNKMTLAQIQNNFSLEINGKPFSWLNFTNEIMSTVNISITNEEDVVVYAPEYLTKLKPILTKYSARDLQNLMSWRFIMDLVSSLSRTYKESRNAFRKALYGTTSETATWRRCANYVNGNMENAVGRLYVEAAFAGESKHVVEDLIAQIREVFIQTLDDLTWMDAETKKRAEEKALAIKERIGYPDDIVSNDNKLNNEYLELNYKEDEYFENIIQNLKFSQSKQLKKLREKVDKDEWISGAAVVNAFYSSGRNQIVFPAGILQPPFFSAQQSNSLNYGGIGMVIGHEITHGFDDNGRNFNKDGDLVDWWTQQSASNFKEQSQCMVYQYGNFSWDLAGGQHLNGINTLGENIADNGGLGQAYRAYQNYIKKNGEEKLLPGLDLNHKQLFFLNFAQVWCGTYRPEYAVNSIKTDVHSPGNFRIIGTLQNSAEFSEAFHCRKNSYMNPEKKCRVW
Sequence of human GLP-1 receptor (P43220 24-463): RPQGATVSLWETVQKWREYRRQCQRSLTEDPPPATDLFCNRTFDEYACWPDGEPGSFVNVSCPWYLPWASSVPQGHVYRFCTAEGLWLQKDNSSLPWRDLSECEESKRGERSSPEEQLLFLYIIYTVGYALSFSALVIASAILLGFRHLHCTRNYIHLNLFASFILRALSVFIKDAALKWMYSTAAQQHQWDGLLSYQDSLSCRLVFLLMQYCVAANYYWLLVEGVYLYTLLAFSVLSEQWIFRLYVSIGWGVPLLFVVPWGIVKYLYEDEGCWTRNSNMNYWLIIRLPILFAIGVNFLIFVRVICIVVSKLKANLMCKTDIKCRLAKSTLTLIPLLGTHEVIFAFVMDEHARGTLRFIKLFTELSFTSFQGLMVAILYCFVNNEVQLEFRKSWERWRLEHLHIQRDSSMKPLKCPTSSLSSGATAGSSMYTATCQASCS

remaining at 25 min, 40 μM (chymotrypsin [1]; 1500 seconds, read-out: peptide remaining after 1500 seconds): > 25%
half-life (chymotrypsin [2]; 40 μM peptide, TBS pH 8.0, room temperature, read-out: t1/2 with chymotrypsin (converted)): 12.5 min
t1/2 with neprilysin relative to native GLP-1 peptide (neprilysin): more than 100 times
Max Response (% GLP-1 max) (human GLP-1 receptor; HEK293 cells, cAMP production): 88 % GLP-1 max
cAMP production, AVERAGES at M Concentrations −7 (human GLP-1 receptor; peptide concentration −7 (log M)): 88.32
cAMP production, AVERAGES at M Concentrations −8 (human GLP-1 receptor; peptide concentration −8 (log M)): 63.0221
cAMP production, AVERAGES at M Concentrations −9 (human GLP-1 receptor; peptide concentration −9 (log M)): 35
cAMP production, AVERAGES at M Concentrations −10 (human GLP-1 receptor; peptide concentration −10 (log M)): 4.469
cAMP production, AVERAGES at M Concentrations −11 (human GLP-1 receptor; peptide concentration −11 (log M)): 3.504
cAMP production, AVERAGES at M Concentrations −12 (human GLP-1 receptor; peptide concentration −12 (log M)): 2.813
cAMP production, AVERAGES at M Concentrations −13 (human GLP-1 receptor; peptide concentration −13 (log M)): 3.831
cleavage by DPP-4 over seven days (in words) (DPP-4 [3]; monitored seven days): no cleavage was detected
Compound: CC[C@H](C)[C@H](NC(=O)[C@H](Cc1ccccc1)NC(=O)[C@H](CCC(=O)O)NC(=O)[C@H]1CCC[C@@H]1NC(=O)[C@H](C)NC(=O)[C@H](C)NC(=O)[C@H](CCC(N)=O)NC(=O)[C@H]1CCC[C@@H]1NC(=O)[C@H](CCC(=O)O)NC(=O)[C@H](CC(C)C)NC(=O)[C@H](Cc1ccc(O)cc1)NC(=O)[C@H]1CCC[C@@H]1NC(=O)[C@H](CO)NC(=O)C(C)(C)NC(=O)[C@H](CC(=O)O)NC(=O)[C@H](CO)NC(=O)[C@@H](NC(=O)[C@H](Cc1ccccc1)NC(=O)[C@@H](NC(=O)CNC(=O)[C@H](CCC(=O)O)NC(=O)C(C)(C)NC(=O)[C@@H](N)Cc1c[nH]cn1)[C@@H](C)O)[C@@H](C)O)C(=O)N[C@H]1CCC[C@@H]1C(=O)N[C@@H](Cc1c[nH]c2ccccc12)C(=O)N[C@@H](CC(C)C)C(=O)N[C@H](C(=O)N[C@H]1CNC[C@@H]1C(=O)NCC(=O)N[C@@H](CCCNC(=N)N)C(=O)NCC(N)=O)C(C)C [SEQ. ID. NO: 7]

Compound: H-HAEGTFTSDASXYLEXQAAXEFIXWLVZGRG-NH2
not cleaved (DPP-4 [4]): no cleavage was detected during seven (7) days

remaining at 1 min, 40 μM (chymotrypsin [1]; 60 seconds, read-out: peptide remaining after 60 seconds of digestion): < 25%
number of major cleavage sites, chymotrypsin (chymotrypsin [2]; MALDI-TOF-MS): three
half-life at 40 μM (chymotrypsin [2]; chymotrypsin (isolated protease), 40 μM peptide, TBS pH 8.0, room temperature, read-out: t1/2 with chymotrypsin (converted)): 0.317 min
number of major cleavage sites, neprilysin (neprilysin; MALDI-TOF-MS): five
half-life at 40 μM (neprilysin; neprilysin (isolated protease), pH 8, 40 μM peptide, TBS pH 8.0, room temperature, read-out: half-life (t1/2) with neprilysin (converted)): 19.8 min
half-life at 40 μM (DPP-4 [3]; DPP-4 (isolated protease)): 13.5 min
Compound: CC[C@H](C)[C@H](NC(=O)[C@H](Cc1ccccc1)NC(=O)[C@H](CCC(=O)O)NC(=O)[C@H](CCCCN)NC(=O)[C@H](C)NC(=O)[C@H](C)NC(=O)[C@H](CCC(N)=O)NC(=O)CNC(=O)[C@H](CCC(=O)O)NC(=O)[C@H](CC(C)C)NC(=O)[C@H](Cc1ccc(O)cc1)NC(=O)[C@H](CO)NC(=O)[C@H](CO)NC(=O)[C@@H](NC(=O)[C@H](CC(=O)O)NC(=O)[C@H](CO)NC(=O)[C@@H](NC(=O)[C@H](Cc1ccccc1)NC(=O)[C@@H](NC(=O)CNC(=O)[C@H](CCC(=O)O)NC(=O)[C@H](C)NC(=O)[C@@H](N)Cc1c[nH]cn1)[C@@H](C)O)[C@@H](C)O)C(C)C)C(=O)N[C@@H](C)C(=O)N[C@@H](Cc1c[nH]c2ccccc12)C(=O)N[C@@H](CC(C)C)C(=O)N[C@H](C(=O)N[C@@H](CCCCN)C(=O)NCC(=O)N[C@@H](CCCNC(=N)N)C(=O)NCC(N)=O)C(C)C [SEQ. ID. NO: 1]
Average Blood Glucose Level (C57BL/6J mice; 1 mg/kg i.p., time 0.0 min): 81.8 mg/dL
Average Blood Glucose Level (C57BL/6J mice; 1 mg/kg i.p., time 30.0 min): 132.8 mg/dL
Average Blood Glucose Level (C57BL/6J mice; 1 mg/kg i.p., time 60.0 min): 99.3 mg/dL
Average Blood Glucose Level (C57BL/6J mice; 1 mg/kg i.p., time 90.0 min): 74.8 mg/dL
Average Blood Glucose Level (C57BL/6J mice; 1 mg/kg i.p., time 120.0 min): 86.0 mg/dL
Average Blood Glucose Level (C57BL/6J mice; 1 mg/kg i.p., time −60.0 min (peptide injection)): 108.0 mg/dL
Average Blood Glucose Level at 30 min (column head AUC) (C57BL/6J mice; 1 mg/kg i.p., Table 7, 30 min after second glucose injection given five hours after peptide): 250.5
glucose-lowering effect in GTT repeated 5 hours after agonist administration (in words) (C57BL/6J mice; 1 mg/kg, 30 min after the second glucose challenge): no significant difference

Compound: H-HAEGTFTSDVSSYLEGQAAKEFIAWLVKGRG-NH2
cleaved bond [5]: cleaves after Ala8
cleaved bond (neprilysin (NEP 24.11)): Asp15-Val16; also recorded: cleaves after Ser18; also recorded: cleaves after Tyr19; also recorded: cleaves after Glu27; also recorded: cleaves after Phe28; also recorded: cleaves after Trp31
